25 molecules from paper PMC7822874, “Chemoprotective antimalarials identified through quantitative high-throughput screening of Plasmodium blood and liver stage parasites” (Scientific Reports, 2021) can be followed below.

The nature of one data set: in vitro. The settings on record: human.
As to `CN(C)S(=O)(=O)Oc1ccsc1C(=O)Nc1cccc(Cl)c1` [MLS000327935-01], the viability was determined as 102%. `CCOc1cc(CNC(C)C(O)c2ccccc2)cc(Cl)c1OCC` (stereo not shown) [MLS000701716-01]: the viability at 48 h, 1 µM came to 90% and the viability at 48 h, 3 µM turned out to be 88%.

As for `COc1ccc(-c2c[n+](CC(=O)c3cccs3)c3n2CCC3)cc1` [MLS000333575-01], the viability was 101%.

Still in this data set, the particulars now being: human, HepG2-A16-CD81EGFP cells, uninfected.
For the molecule `CCOc1cc(CN2CCCC(N3CCN(c4ccc(F)cc4)CC3)C2)ccc1OC` (stereo not shown) [MLS001162894-01], the viability at 48 h, 1 µM was 114% and the viability at 48 h, 3 µM stood at 103%. With `C=C(C)CSc1nc2sc3c(c2c(=O)n1-c1ccc(OC)cc1)CCN(C)C3` [MLS001173660-01], the viability at 48 h, 1 µM worked out at 106% and the viability at 48 h, 3 µM worked out at 105%. With `OC(CNCCNc1ncccc1C(F)(F)F)Cn1ccc2ccccc21` (stereo not shown) [MLS000833573-01], the viability at 48 h, 1 µM was found to be 106% and the viability at 48 h, 3 µM is 96%. For the molecule `COC(CSc1nc(N)c2c3c(sc2n1)CN(C)CC3)OC` [MLS001215130-01], the viability at 66 h amounted to 97.5%. Take `COc1cccc(N2C(N)=NC(N)=NC2(C)C)c1` [MLS000047853-01]: the viability at 48 h was found to be 103% and the viability at 48 h, 1 µM is 103%.

On to `Cc1ccc2[nH]c(C(=O)Nc3ccc(F)cc3)cc2c1` [MLS001183414-01], for which the viability at 66 h amounted to 99.7%.

In the case of `Cc1ccccc1Nc1nnc(SCc2cc(=O)n3ccsc3n2)s1` [MLS000565690-01], the viability at 48 h, 1 µM was determined as 107% and the viability at 48 h, 3 µM was 101%. In the case of `Cc1nn(-c2ccc([N+](=O)[O-])cc2)c2c1C(c1cccc(Br)c1)N1C(=N2)C(=O)Nc2ccccc21` (stereo not shown) [MLS000331784-01], the viability at 48 h, 1 µM was 105% and the viability at 48 h, 3 µM was found to be 102%. Take `CCc1ccc2c(c1)C1(NN=C(c3ccc(C)cc3)S1)C(=O)N2` (stereo not shown) [MLS000528737-01]: the viability at 48 h, 1 µM came to 115% and the viability at 48 h, 3 µM stood at 80%.

For `CCOc1ccc2nc(C)cc(Nc3cccc([N+](=O)[O-])c3)c2c1` [MLS000663974-01], the viability at 66 h was determined as 102%. With `CCCC(=O)Nc1sc2c(c1C(=O)Nc1ccccn1)CCCC2` [MLS000765104-01], the viability at 66 h is 101%. On to `CCOC(=O)Cn1c2c(c(=N)c3c1CCC3)CCC2` [MLS000080129-01], for which the viability at 66 h was found to be 99.5%. For the molecule `Clc1cccc(CN2CCc3c([nH]c4ccccc34)C2)c1Cl` [MLS001164092-01], the viability at 48 h worked out at 104% and the viability at 48 h, 1 µM came to 104%. In the case of `Cc1ccc(C(=O)c2oc3ccccc3c2NC(=O)c2cc(-c3cc(C)ccc3O)[nH]n2)cc1` [MLS000331963-01], the viability at 48 h, 1 µM came out at 103% and the viability at 48 h, 3 µM worked out at 102%. As for `CC(C)(C)NC(=O)Cn1ccc(=N)c2ccccc21` [MLS000068809-01], the viability at 48 h, 1 µM is 99% and the viability at 48 h, 3 µM was determined as 97%.

`Cc1ccc(NN=C2C=CC(=O)c3ncccc32)cc1` [MLS000585898-01]: the viability at 48 h, 1 µM was 93% and the viability at 48 h, 3 µM was determined as 88%.

On to `COc1ccc(C(=O)C[n+]2ccc(N(C)C)cc2)cc1` [MLS001044390-01], for which the viability at 66 h was 100%.

For `Cc1ccc(CN(C)C(=O)c2cc(COc3ccc(F)cc3Cl)on2)o1` [MLS000734222-01], the viability at 66 h is 101%. For the molecule `COc1ccccc1NC(=O)Cn1c(C)ccc(N[S+](=O)([O-])c2ccccc2)c1=O` [NCGC00430868-01], the viability at 66 h came out at 109%. On to `Cc1ccc2nc3c(c(Nc4ccc(O)cc4)c2c1)CCC3` [MLS001196969-01], for which the viability at 48 h, 1 µM came to 99% and the viability at 48 h, 3 µM worked out at 99%. Regarding `c1cc(Nc2ncnc3sc4c(c23)CCC4)ccn1` [MLS000681348-01], the viability at 48 h came to 103% and the viability at 48 h, 1 µM came out at 103%. Consider `COc1ccccc1-c1nnc2sc(COc3ccc(F)cc3)nn12` [MLS000042616-01], for which the viability at 48 h is 102% and the viability at 48 h, 1 µM came out at 102%.

The viability is a read-out of living cells in per cent, often relative to untreated cells.
